Results as given in patent publication US20230167073A1 (Teijin Pharma Limited, priority 2020, published 2023).

Biological target: T1, Human TRPC6 (Homo sapiens, UniProt Q9Y210)
T1 construct: expressed in transfected cells
T1 sequence (Q9Y210 1-931): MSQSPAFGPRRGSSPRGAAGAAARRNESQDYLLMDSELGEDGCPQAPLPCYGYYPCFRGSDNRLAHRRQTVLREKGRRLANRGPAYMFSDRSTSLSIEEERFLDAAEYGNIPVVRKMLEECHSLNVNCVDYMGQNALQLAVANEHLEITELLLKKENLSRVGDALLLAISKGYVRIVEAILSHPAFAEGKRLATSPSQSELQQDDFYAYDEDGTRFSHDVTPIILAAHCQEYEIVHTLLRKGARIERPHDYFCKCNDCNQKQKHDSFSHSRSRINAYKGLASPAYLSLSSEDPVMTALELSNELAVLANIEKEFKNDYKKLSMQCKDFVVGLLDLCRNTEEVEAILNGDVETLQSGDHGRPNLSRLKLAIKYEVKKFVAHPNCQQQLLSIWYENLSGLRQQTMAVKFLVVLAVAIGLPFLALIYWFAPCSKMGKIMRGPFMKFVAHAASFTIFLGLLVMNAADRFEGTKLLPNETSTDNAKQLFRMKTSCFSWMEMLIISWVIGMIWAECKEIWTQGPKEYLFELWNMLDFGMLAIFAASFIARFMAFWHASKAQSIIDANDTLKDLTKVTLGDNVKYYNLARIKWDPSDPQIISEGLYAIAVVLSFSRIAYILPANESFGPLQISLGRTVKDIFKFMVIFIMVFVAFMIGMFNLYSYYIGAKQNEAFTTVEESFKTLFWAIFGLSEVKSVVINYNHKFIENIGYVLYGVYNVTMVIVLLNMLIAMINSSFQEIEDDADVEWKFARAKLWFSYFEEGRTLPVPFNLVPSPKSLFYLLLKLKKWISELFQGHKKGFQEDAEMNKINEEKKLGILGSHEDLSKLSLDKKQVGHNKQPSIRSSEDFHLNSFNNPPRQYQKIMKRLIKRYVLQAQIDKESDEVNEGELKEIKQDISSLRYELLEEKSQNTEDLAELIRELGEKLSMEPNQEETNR
Experiment: Evaluation of TRPC6 channel inhibitory activity (1), FLIPR Calcium 5 Assay Kit, OAG stimulation (Compound Nos. 1-1293)
Type: cell-based
Conditions: Human TRPC6 stably-expressing cells, OAG 30 μM, FLIPR Calcium 5 Assay Kit; read-out: Inhibitory activity (pIC50 class) (converted)
Method in brief: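 The FLIPR signal is maximum fluorescence after 30 μM OAG minus minimum before compound, measured in a human TRPC6 stable line loaded with Calcium 5 dye. Compounds were preincubated 20 min. pIC50 came from four-parameter logistic fitting of inhibition rates and is given as symbol ranges.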

Row | SMILES | IC50
1 | CCC(N)c1cnc(-c2ccc(C#N)cc2Oc2cc(C)nc(N3CCOCC3)c2)nc1 (stereo not shown) [compound 735, 4-[5-(1-aminopropyl)pyrimidin-2-yl]-3-(2-methyl-6-morpholin-4-ylpyridin-4-yl)oxybenzonitrile] | < 10 nM
2 | Cc1nc(Oc2cc(C#N)ccc2-c2ccc(CCN)cc2)cc(N2CC(F)(F)C(F)(F)C2)n1 [Compound 26, 4-[4-(2-aminoethyl)phenyl]-3-[2-methyl-6-(3,3,4,4-tetrafluoropyrrolidin-1-yl)pyrimidin-4-yl]oxybenzonitrile] | < 10 nM
3 | Cc1nc(Oc2cc(C#N)ccc2-n2cc([C@H](O)CN)cn2)cc(-c2ccccc2C(F)(F)F)n1 [compound 355, 4-[4-[(1S)-2-amino-1-hydroxyethyl]pyrazol-1-yl]-3-[2-methyl-6-[2-(trifluoromethyl)phenyl]pyrimidin-4-yl]oxybenzonitrile] | > 1000 nM
4 | Cc1cc(Oc2cc(C#N)ccc2-c2ncc([C@H](F)CN)cn2)cc(N2CCOCC2)n1 [compound 872, 4-[5-[(1S)-2-amino-1-fluoroethyl]pyrimidin-2-yl]-3-(2-methyl-6-morpholin-4-ylpyridin-4-yl)oxybenzonitrile] | < 10 nM
5 | N#Cc1ccc(-c2ncc(CCN)cn2)c(Oc2cnn(CC(F)F)c2)c1 [compound 927, 4-[5-(2-aminoethyl)pyrimidin-2-yl]-3-[1-(2,2-difluoroethyl)pyrazol-4-yl]oxybenzonitrile] | 10 to 1000 nM
6 | N#Cc1ccc(-c2ccc(CCN)cc2)c(Cn2ccc(-c3ccccc3)n2)c1 [compound 1112, 4-[4-(2-aminoethyl)phenyl]-3-[(3-phenylpyrazol-1-yl)methyl]benzonitrile] | > 1000 nM
7 | Cc1cccc(-c2cn(Cc3cc(C#N)ccc3-c3ccc(CCN)cn3)cn2)c1 [compound 1148, 4-[5-(2-aminoethyl)pyridin-2-yl]-3-[[4-(3-methylphenyl)imidazol-1-yl]methyl]benzonitrile] | < 10 nM
8 | Cc1nc(Oc2cc(C#N)ccc2-c2ccc(C(CN)c3ccccc3)cc2)cc(N2CCOCC2)n1 (stereo not shown) [Compound 59, 4-[4-(2-Amino-1-phenylethyl)phenyl]-3-(2-methyl-6-morpholin-4-ylpyrimidin-4-yl)oxybenzonitrile] | 10 to 1000 nM
9 | Cc1nc(Oc2cc(C#N)ccc2-c2ncc(CCN)cn2)cc(OC(C)C)n1 [compound 848, 4-[5-(2-aminoethyl)pyrimidin-2-yl]-3-(2-methyl-6-propan-2-yloxypyrimidin-4-yl)oxybenzonitrile] | < 10 nM
10 | CC(C)COCc1cncn1Cc1cc(C#N)ccc1-c1ccc(CCN)cc1 [compound 1117, 4-[4-(2-aminoethyl)phenyl]-3-[[5-(2-methylpropoxymethyl)imidazol-1-yl]methyl]benzonitrile] | 10 to 1000 nM
11 | CN(C)c1cc(Oc2cc(F)ccc2-c2ncc(CCN)cn2)n(C)n1 [compound 999, 5-[2-[5-(2-aminoethyl)pyrimidin-2-yl]-5-fluorophenoxy]-N,N,1-trimethylpyrazole-3-amine] | 10 to 1000 nM
12 | Cc1cc(Oc2cc(C#N)ccc2-c2ncc([C@@H](F)CN)cn2)cc(N2CCOCC2)n1 [compound 876, 4-[5-[(1R)-2-amino-1-fluoroethyl]pyrimidin-2-yl]-3-(2-methyl-6-morpholin-4-ylpyridin-4-yl)oxybenzonitrile] | < 10 nM
13 | Cn1nc(-c2ccccc2)cc1Oc1cc(Cl)ncc1-c1ccc(CN)cn1 [compound 1291, [6-[6-chloro-4-(2-methyl-5-phenylpyrazol-3-yl)oxypyridin-3-yl]pyridin-3-yl]methanamine] | > 1000 nM

The next lines start with the values.

Row | IC50 | SMILES
14 | < 10 nM | Cc1nc(Oc2cc(C#N)ccc2-n2cc([C@H](O)CN)cn2)cc(-c2ccccc2C#N)n1 [compound 344, 4-[4-[(1S)-2-amino-1-hydroxyethyl]pyrazol-1-yl]-3-[6-(2-cyanophenyl)-2-methylpyrimidin-4-yl]oxybenzonitrile]
15 | 10 to 1000 nM | Cc1nc(Oc2cc(C#N)ccc2-n2cc([C@@H](O)CN)cn2)cc(-c2ccccc2F)n1 [compound 339, 4-[4-[(1R)-2-amino-1-hydroxyethyl]pyrazol-1-yl]-3-[6-(2-fluorophenyl)-2-methylpyrimidin-4-yl]oxybenzonitrile]
16 | < 10 nM | Cc1cc(Oc2cc(C#N)ccc2-c2ccc([C@H](O)CN)cn2)cc(N2CCCC2)n1 [compound 498, 4-[5-[(1S)-2-amino-1-hydroxyethyl]pyridin-2-yl]-3-(2-methyl-6-pyrrolidin-1-ylpyridin-4-yl)oxybenzonitrile]
17 | < 10 nM | Cn1nc(-c2ccccc2)cc1Oc1cc(C#N)ccc1-c1ccc([C@@H](O)CN)cn1 [compound 365, 4-[5-[(1R)-2-amino-1-hydroxyethyl]pyridin-2-yl]-3-(2-methyl-5-phenylpyrazol-3-yl)oxybenzonitrile]
18 | 10 to 1000 nM | Cc1cc(Oc2cc(C#N)ccc2-c2ccc([C@H](O)CN)cn2)cc(OCC2CCCO2)n1 (stereo partly drawn) [compound 478, 4-[5-[(1S)-2-amino-1-hydroxyethyl]pyridin-2-yl]-3-[2-methyl-6-(oxolan-2-ylmethoxy)pyridin-4-yl]oxybenzonitrile]
19 | 10 to 1000 nM | CN(C)c1cc(Oc2cc(C#N)ccc2-c2ccc([C@H](O)CN)cn2)n(C)n1 [compound 546, 4-[5-[(1S)-2-amino-1-hydroxyethyl]pyridin-2-yl]-3-[5-(dimethylamino)-2-methylpyrazol-3-yl]oxybenzonitrile]
20 | 10 to 1000 nM | Cn1nc(C2CC2)cc1Oc1cc(C#N)ccc1-c1cc(OCCN)ccn1 [compound 556, 4-[4-(2-aminoethoxy)pyridin-2-yl]-3-(5-cyclopropyl-2-methylpyrazol-3-yl)oxybenzonitrile]
21 | 10 to 1000 nM | Cn1nc(C2CC2)cc1Oc1cc(C#N)ccc1-c1ccc(C(C)(C)N)cn1 [compound 400, 4-[5-(2-aminopropan-2-yl)pyridin-2-yl]-3-(5-cyclopropyl-2-methylpyrazol-3-yl)oxybenzonitrile]
22 | < 10 nM | Cn1nc(-c2ccccc2)cc1Oc1cc(C#N)ccc1-c1ncc(C(O)CN)s1 (stereo not shown) [Compound 225, 4-[5-(2-amino-1-hydroxyethyl)-1,3-thiazol-2-yl]-3-(2-methyl-5-phenylpyrazol-3-yl)oxybenzonitrile]
23 | > 1000 nM | Cn1nc(C2CCC2)cc1Oc1cc(C#N)ccc1-c1ncc(C(O)CNCC#N)cn1 (stereo not shown) [Compound 281, 4-[5-[2-(cyanomethylamino)-1-hydroxyethyl]pyrimidin-2-yl]-3-(5-cyclobutyl-2-methylpyrazol-3-yl)oxybenzonitrile]
24 | 10 to 1000 nM | Cn1nc(C#N)cc1Oc1cc(C#N)ccc1-c1ccc(CCN)cn1 [compound 964, 5-[2-[5-(2-aminoethyl)pyridin-2-yl]-5-cyanophenoxy]-1-methylpyrazole-3-carbonitrile]
25 | 10 to 1000 nM | Cn1nc(C2CC2)cc1Oc1cc(C#N)ccc1-c1cc(C(O)CN)ccn1 (stereo not shown) [compound 519, 4-[4-(2-amino-1-hydroxyethyl)pyridin-2-yl]-3-(5-cyclopropyl-2-methylpyrazol-3-yl)oxybenzonitrile]
26 | < 10 nM | Cn1nc(-c2ccnn2C)cc1Oc1cc(C#N)ccc1-c1ncc(CN)cn1 [compound 945, 4-[5-(aminomethyl)pyrimidin-2-yl]-3-[2-methyl-5-(2-methylpyrazol-3-yl)pyrazol-3-yl]oxybenzonitrile]
27 | > 1000 nM | Cn1nc(C2CC2)cc1Oc1cc(C#N)ccc1-c1ccc(CN2CCOCC2)cn1 [compound 424, 3-(5-cyclopropyl-2-methylpyrazol-3-yl)oxy-4-[5-(morpholin-4-ylmethyl)pyridin-2-yl]benzonitrile]
28 | < 10 nM | CCc1cc(Oc2cc(C#N)ccc2-c2ncc(CN)cn2)n(C)n1 [compound 324, 4-[5-(aminomethyl)pyrimidin-2-yl]-3-(5-ethyl-2-methylpyrazol-3-yl)oxybenzonitrile]
29 | > 1000 nM | CN(C)C(=O)CNC(C)(C)Cc1ccc(-c2ccc(C#N)cc2Oc2cc(-c3ccccn3)nn2C)nc1 [compound 839, 2-[[1-[6-[4-cyano-2-(2-methyl-5-pyridin-2-ylpyrazol-3-yl)oxyphenyl]pyridin-3-yl]-2-methylpropan-2-yl]amino]-N,N-dimethylacetamide]
30 | < 10 nM | Cn1nc(C2CC2)cc1Oc1cc(C#N)ccc1-c1ncc(CN)cn1 [compound 325, 4-[5-(aminomethyl)pyrimidin-2-yl]-3-(5-cyclopropyl-2-methylpyrazol-3-yl)oxybenzonitrile]
31 | > 1000 nM | N#Cc1ccc(-c2ccc(CCN)cn2)c(Oc2cc(N3CCOCC3)cnn2)c1 [Compound 91, 4-[5-(2-aminoethyl)pyridin-2-yl]-3-(5-morpholin-4-ylpyridazin-3-yl)oxybenzonitrile]
